Laboratory results reported in US10183914B2 (BAYER CROPSCIENCE AKTIENGESELLSCHAFT, priority 2014, dated 2019).
Read-outs that look alike come from different tables or passages of the source.

What was measured:
Setaria viridis [1] = test: Pre-emergence herbicidal effect; assay type: in vivo; settings: 3 weeks
Summary of the method: (§1)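 Pre-emergence soil-surface application: WP or EC formulations in water (600 to 800 L/ha, 0.2% wetting agent) onto covered seeds in sandy loam. Plants kept under good greenhouse conditions. Damage rated visually at 3 weeks, 0% = control, 100% = dead.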

Echinochloa crus-galli [2] = test: Pre-emergence herbicidal effect; assay type: in vivo; settings: 3 weeks
Summary of the method: as §1

Viola tricolor = test: Pre-emergence herbicidal effect; assay type: in vivo; settings: 3 weeks
Summary of the method: as §1

Lolium multiflorum [3] = test: Pre-emergence herbicidal effect; assay type: in vivo; settings: 3 weeks
Summary of the method: as §1

Alopecurus myosuroides [4] = test: Pre-emergence herbicidal effect; assay type: in vivo; settings: 3 weeks
Summary of the method: as §1

Matricaria inodora = test: Pre-emergence herbicidal effect; assay type: in vivo; settings: 3 weeks
Summary of the method: as §1

Avena fatua = test: Pre-emergence herbicidal effect; assay type: in vivo; settings: 3 weeks
Summary of the method: as §1

Veronica persica = test: Pre-emergence herbicidal effect; assay type: in vivo; settings: 3 weeks
Summary of the method: as §1

Abutilon theophrasti = test: Pre-emergence herbicidal effect; assay type: in vivo; settings: 3 weeks
Summary of the method: as §1

Stellaria media = test: Pre-emergence herbicidal effect; assay type: in vivo; settings: 3 weeks
Summary of the method: as §1

Amaranthus retroflexus = test: Pre-emergence herbicidal effect; assay type: in vivo; settings: 3 weeks
Summary of the method: as §1

Polygonum convolvulus = test: Pre-emergence herbicidal effect; assay type: in vivo; settings: 3 weeks
Summary of the method: as §1

Ipomoea purpurea [5] = test: Pre-emergence herbicidal effect; assay type: in vivo; settings: 3 weeks
Summary of the method: as §1

Setaria viridis [6] = test: Post-emergence herbicidal effect; assay type: in vivo; settings: 320 g/ha (dose by row order of upper half), scoring after about 3 weeks
Protocol: (§2) Seeds of monocotyledonous and dicotyledonous weed and crop plants are laid out in sandy loam in wood-fiber pots, covered with soil and cultivated in a greenhouse under good growth conditions. 2 to 3 weeks after sowing, the test plants are treated at the one-leaf stage. The compounds of the invention, formulated in the form of wettable powders (WP) or as emulsion concentrates (EC), are then sprayed onto the green parts of the plants as aqueous suspension or emulsion at a water application rate equating to 600 to 800 L/ha with addition of 0.2% wetting agent. After the trial plants have been left to stand in a greenhouse under optimal growth conditions for about 3 weeks, the efficacy of the formulations is scored visually in comparison to untreated controls (herbicidal action in percent (%): 100% efficacy=the plants have died, 0% efficacy=like control plants).

Echinochloa crus-galli [7] = test: Post-emergence herbicidal effect; assay type: in vivo; settings: visual scoring after about 3 weeks
Protocol: as §2

Lolium multiflorum [8] = test: Post-emergence herbicidal effect; assay type: in vivo; settings: visual scoring after about 3 weeks
Protocol: as §2

Oryza sativa [9] = test: Pre-emergence herbicidal effect and crop plant compatibility; assay type: in vivo; settings: 3 weeks
Summary of the method: as §1

Zea mays [10] = test: as above; assay type: in vivo; settings: 3 weeks
Summary of the method: as §1

[11] = logp (HCOOH), physicochemical characterization
Oryza sativa [12] = test: Post-emergence herbicidal effect and crop plant compatibility; assay type: in vivo; settings: visual scoring after about 3 weeks
Summary of the method: (§3)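 Test species, both weeds and crops, are raised in sandy loam and treated post-emergence at one leaf. Compounds in WP or EC form are applied with 0.2% wetting agent at 600 to 800 L/ha. Percent herbicidal action against untreated plants is judged by eye about 3 weeks on.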

Alopecurus myosuroides [13] = test: Post-emergence herbicidal effect; assay type: in vivo; settings: 320 g/ha, visual scoring after about 3 weeks
Protocol: as §2

[14] = tested on: Triticum aestivum (spring); test: Pre-emergence herbicidal effect and crop plant compatibility; assay type: in vivo; settings: 3 weeks
Summary of the method: as §1

[15] = tested on: Triticum aestivum (spring); test: Post-emergence herbicidal effect and crop plant compatibility; assay type: in vivo; settings: visual scoring after about 3 weeks
Summary of the method: as §3

Zea mays [16] = test: as above; assay type: in vivo; settings: visual scoring after about 3 weeks
Summary of the method: as §3

Ipomoea purpurea [17] = test: Post-emergence herbicidal effect; assay type: in vivo; settings: 320 g/ha (dose by row order of upper half), scoring after about 3 weeks
Protocol: as §2

Cyperus esculentus = test: Pre-emergence herbicidal effect; assay type: in vivo; settings: 3 weeks
Summary of the method: as §1

Row | SMILES | SETVI herbicidal activity in percent (Setaria viridis [1]; 320 g/ha) | ECHCG herbicidal activity in percent (Echinochloa crus-galli [2]; 320 g/ha) | VIOTR herbicidal activity in percent (Viola tricolor; 320 g/ha) | LOLMU herbicidal activity in percent (Lolium multiflorum [3]; 320 g/ha) | ALOMY herbicidal activity in percent (Alopecurus myosuroides [4]; 320 g/ha) | MATIN herbicidal activity in percent (Matricaria inodora; 320 g/ha) | AVEFA herbicidal activity in percent (Avena fatua; 320 g/ha) | VERPE herbicidal activity in percent (Veronica persica; 320 g/ha) | STEME herbicidal activity in percent (Stellaria media; 320 g/ha) | AMARE herbicidal activity in percent (Amaranthus retroflexus; 320 g/ha) | POLCO herbicidal activity in percent (Polygonum convolvulus; 320 g/ha) | PHBPU herbicidal activity in percent (Ipomoea purpurea [5]; 320 g/ha) | post-emergence efficacy LOLMU (Lolium multiflorum [8]; 320 g/ha) | ZEAMX herbicidal activity in percent (Zea mays [10]; 320 g/ha) | logp (HCOOH) [11] | VIOTR herbicidal activity in percent (Viola tricolor; 80 g/ha) | ALOMY herbicidal activity in percent (Alopecurus myosuroides [4]; 80 g/ha) | MATIN herbicidal activity in percent (Matricaria inodora; 80 g/ha) | VERPE herbicidal activity in percent (Veronica persica; 80 g/ha) | STEME herbicidal activity in percent (Stellaria media; 80 g/ha) | also measured
1 | O=C1CCCc2nc(NC3CCc4ccccc43)ncc21 (racemic) [2.91] | 100% | 100% | 100% | 100% | 90% | 100% | 80% | 100% | 100% | 100% | 80% | 100% | 100% | 20% | oily; logp (HCOOH): 2.62; 1H-NMR (CDCl3, 400 MHZ, δ in ppm): 1.25 (m, 1H, 1H |  |  |  |  |  | ABUTH herbicidal activity in percent (Abutilon theophrasti; 320 g/ha): 100%; post-emergence efficacy SETVI (Setaria viridis [6]): 90%; post-emergence efficacy ECHCG (Echinochloa crus-galli [7]; 320 g/ha): 100%; ORYSA herbicidal activity in percent (Oryza sativa [9]; 320 g/ha): 20%; post-emergence efficacy ORYSA (Oryza sativa [12]; 320 g/ha): 0%
2 | Cc1ccc2c(c1)[C@H](Nc1ncc3c(n1)CC(C(F)(F)F)CC3=O)[C@@H](C)C2 (some centres unmarked) [2.46] | 90% | 100% | 100% | 100% | 90% | 100% |  | 100% | 100% | 100% | 100% |  | 100% | 0% | oily; logp (HCOOH): 3.24; 1H-NMR (CDCl3, 400 MHZ, δ in ppm): 1.25 (t, 3H, CH3); | 100% | 90% | 90% | 100% | 100% | SETVI herbicidal activity in percent (Setaria viridis [1]; 80 g/ha): 90%; ECHCG herbicidal activity in percent (Echinochloa crus-galli [2]; 80 g/ha): 90%; LOLMU herbicidal activity in percent (Lolium multiflorum [3]; 80 g/ha): 100%; ABUTH herbicidal activity in percent (Abutilon theophrasti; 320 g/ha): 80%; AMARE herbicidal activity in percent (Amaranthus retroflexus; 80 g/ha): 90%; post-emergence efficacy LOLMU (Lolium multiflorum [8]; 80 g/ha): 80%; post-emergence efficacy ALOMY (Alopecurus myosuroides [13]): 100%; TRZAS herbicidal activity in percent ([14]; 80 g/ha): 0%; TRZAS herbicidal activity in percent ([14]; 320 g/ha): 0%; ZEAMX herbicidal activity in percent (Zea mays [10]; 80 g/ha): 0%; post-emergence efficacy ORYSA (Oryza sativa [12]; 80 g/ha): 10%; post-emergence efficacy ORYSA (Oryza sativa [12]; 320 g/ha): 20%; post-emergence efficacy TRZAS ([15]; 80 g/ha): 10%; post-emergence efficacy TRZAS ([15]; 320 g/ha): 10%; post-emergence efficacy ZEAMX (Zea mays [16]; 80 g/ha): 0%; post-emergence efficacy ZEAMX (Zea mays [16]; 320 g/ha): 0%
3 | Cc1ccc2c(c1)[C@H](Nc1ncc3c(n1)COCC3=O)[C@@H](C)C2 [2.97] | 100% | 100% | 100% | 100% | 100% | 100% | 100% | 100% | 100% | 100% | 100% |  | 100% |  | oily; logp (HCOOH): 3.26; 1H-NMR (CDCl3, 400 MHZ, δ in ppm): ): 1.25 (t, 3H, | 100% | 100% | 100% | 100% | 100% | SETVI herbicidal activity in percent (Setaria viridis [1]; 80 g/ha): 100%; ECHCG herbicidal activity in percent (Echinochloa crus-galli [2]; 80 g/ha): 100%; AMARE herbicidal activity in percent (Amaranthus retroflexus; 80 g/ha): 100%; POLCO herbicidal activity in percent (Polygonum convolvulus; 80 g/ha): 100%; post-emergence efficacy SETVI (Setaria viridis [6]): 80%; post-emergence efficacy ECHCG (Echinochloa crus-galli [7]; 80 g/ha): 90%; post-emergence efficacy ECHCG (Echinochloa crus-galli [7]; 320 g/ha): 100%; post-emergence efficacy ALOMY (Alopecurus myosuroides [13]): 100%; post-emergence efficacy PHBPU (Ipomoea purpurea [17]): 100%; TRZAS herbicidal activity in percent ([14]; 80 g/ha): 10%; TRZAS herbicidal activity in percent ([14]; 320 g/ha): 20%; ZEAMX herbicidal activity in percent (Zea mays [10]; 80 g/ha): 0%; post-emergence efficacy TRZAS ([15]; 80 g/ha): 0%; post-emergence efficacy TRZAS ([15]; 320 g/ha): 0%
4 | CC(=O)c1cnc(N[C@@H]2CCOc3ccccc32)nc1 [1.4] | 90% | 90% | 100% |  | 100% | 100% | 100% | 100% | 100% | 100% | 100% | 100% |  |  | oily; logp (HCOOH): 2.03; 1H-NMR (CDCL3, 400 MHZ, δ in ppm): 2.15 (m, 1H, 1H | 100% | 100% | 100% | 100% | 90% | AVEFA herbicidal activity in percent (Avena fatua; 80 g/ha): 100%; CYPES herbicidal activity in percent (Cyperus esculentus; 80 g/ha): 80%; CYPES herbicidal activity in percent (Cyperus esculentus; 320 g/ha): 100%; AMARE herbicidal activity in percent (Amaranthus retroflexus; 80 g/ha): 100%; POLCO herbicidal activity in percent (Polygonum convolvulus; 80 g/ha): 100%
5 | O=C1CC(c2ccccc2F)Cc2nc(N[C@@H]3CCCc4ccccc43)ncc21 (some centres unmarked) [2.93] |  |  |  |  |  |  |  |  |  |  |  |  |  |  | oily; logp (HCOOH): 4.38; 1H-NMR (CDCl3, 400 MHZ, δ in ppm): 1.95 (m, 3H, 2H |  |  |  |  |  | VIOTR herbicidal activity in percent (Viola tricolor; 1280 g/ha): 80%; VERPE herbicidal activity in percent (Veronica persica; 1280 g/ha): 100%; CYPES herbicidal activity in percent (Cyperus esculentus; 1280 g/ha): 100%; STEME herbicidal activity in percent (Stellaria media; 1280 g/ha): 100%; AMARE herbicidal activity in percent (Amaranthus retroflexus; 1280 g/ha): 80%; PHBPU herbicidal activity in percent (Ipomoea purpurea [5]; 1280 g/ha): 90%; ORYSA herbicidal activity in percent (Oryza sativa [9]; 1280 g/ha): 20%; TRZAS herbicidal activity in percent ([14]; 1280 g/ha): 0%; ZEAMX herbicidal activity in percent (Zea mays [10]; 1280 g/ha): 0%
6 | CC(=O)c1cnc(NC2CCOc3c(C)cccc32)nc1 (racemic) [1.7] | 90% | 90% | 100% | 100% | 100% | 100% |  | 100% | 100% | 100% | 90% | 100% |  | 20% |  |  | 80% | 90% | 100% | 80% | TRZAS herbicidal activity in percent ([14]; 80 g/ha): 0%; TRZAS herbicidal activity in percent ([14]; 320 g/ha): 0%; ZEAMX herbicidal activity in percent (Zea mays [10]; 80 g/ha): 0%; logp (HCOOH) ([11]; HCOOH): solid; m.p.: 167-168° C.; logp (HCOOH): 2.54; 1H-NMR (CDCl3, 400 MHZ, δ in
7 | CC(=O)c1cnc(NC2CCOc3ccccc32)nc1C (centres unmarked) [1.83, 1-[2-(3,4-Dihydro-2H-chromen-4-ylamino)-4-methylpyrimidin-5-yl]ethanone] |  |  |  |  |  |  |  |  |  |  |  |  |  |  |  |  |  |  |  |  | SETVI herbicidal activity in percent (Setaria viridis [1]; 1280 g/ha): 100%; ECHCG herbicidal activity in percent (Echinochloa crus-galli [2]; 1280 g/ha): 100%; VIOTR herbicidal activity in percent (Viola tricolor; 1280 g/ha): 100%; LOLMU herbicidal activity in percent (Lolium multiflorum [3]; 1280 g/ha): 100%; ALOMY herbicidal activity in percent (Alopecurus myosuroides [4]; 1280 g/ha): 100%; MATIN herbicidal activity in percent (Matricaria inodora; 1280 g/ha): 100%; AVEFA herbicidal activity in percent (Avena fatua; 1280 g/ha): 90%; VERPE herbicidal activity in percent (Veronica persica; 1280 g/ha): 100%; ABUTH herbicidal activity in percent (Abutilon theophrasti; 1280 g/ha): 100%; STEME herbicidal activity in percent (Stellaria media; 1280 g/ha): 100%; AMARE herbicidal activity in percent (Amaranthus retroflexus; 1280 g/ha): 100%; POLCO herbicidal activity in percent (Polygonum convolvulus; 1280 g/ha): 100%; PHBPU herbicidal activity in percent (Ipomoea purpurea [5]; 1280 g/ha): 100%; chromatographic logP ([11]; HCOOH (formic acid)): 2.44
